This assay concerns the target Human recombinant PDE4 (Genbank accession no NM—006203) (Homo sapiens, UniProt Q08499). The assay can be described thus: PDE4 assay (SPA, cAMP cleavage). Type of assay: biochemical. The note with it: Example 53; PDE4 assay as in example 52; read-out: PDE4 IC50 range. On the procedure: At the end of the incubation, the cleavage of the substrate was evaluated by the binding of the AMP product to SPA beads, which generate chemoluminescence when bound to the radioactive tracer. The AMP product inhibited the binding of the radioactive tracer to the beads, and the luminescent signal was competed.
Chain of Human recombinant PDE4 (Genbank accession no NM—006203) (Q08499 1-673 isoform Q08499-2): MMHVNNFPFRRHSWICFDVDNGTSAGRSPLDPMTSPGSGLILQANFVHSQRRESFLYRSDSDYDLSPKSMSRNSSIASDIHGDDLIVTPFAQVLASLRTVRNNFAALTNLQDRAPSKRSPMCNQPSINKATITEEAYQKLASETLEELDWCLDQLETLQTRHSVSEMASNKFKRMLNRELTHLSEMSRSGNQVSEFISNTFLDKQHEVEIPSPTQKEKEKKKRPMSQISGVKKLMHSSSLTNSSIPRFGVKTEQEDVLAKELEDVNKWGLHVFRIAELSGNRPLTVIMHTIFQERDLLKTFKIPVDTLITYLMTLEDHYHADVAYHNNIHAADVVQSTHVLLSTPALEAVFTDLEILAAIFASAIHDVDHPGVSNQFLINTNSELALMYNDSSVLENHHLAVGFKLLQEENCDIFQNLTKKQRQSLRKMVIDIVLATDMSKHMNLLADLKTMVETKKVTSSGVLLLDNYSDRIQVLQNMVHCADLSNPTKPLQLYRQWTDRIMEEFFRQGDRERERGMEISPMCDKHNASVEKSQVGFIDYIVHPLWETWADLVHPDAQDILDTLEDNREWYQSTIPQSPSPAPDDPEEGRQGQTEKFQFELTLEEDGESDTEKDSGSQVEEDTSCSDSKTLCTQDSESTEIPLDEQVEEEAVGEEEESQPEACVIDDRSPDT
`COc1ccc(-c2cccc(C#N)c2)n2nc(C3(CNC(=O)C(C)C)CC3)nc12` [Compound 154, N-{1-[5-(3-Cyano-phenyl)-8-methoxy-[1,2,4]triazolo[1,5-a]pyridin-2-yl]-cyclopropylmethyl}-isobutyramide]: the IC50 was less than 500 nM. In the case of `COc1ccc(-c2cccc(C#N)c2)n2nc(C3(CNC(=O)OC4CCCC4)CC3)nc12` [Compound 155, {1-[5-(3-Cyano-phenyl)-8-methoxyl-[1,2,4]triazolo[1,5-a]pyridin-2-yl]-cyclopropylmethyl}-carbamic acid cyclopentyl ester] it was less than 500 nM. Consider `COc1ccc(-c2cccc(C#N)c2)n2nc(C3(CNC(=O)N4CCCC4)CC3)nc12` [Compound 156, Pyrrolidine-1-carboxylic acid {1-[5-(3-cyano-phenyl)-8-methoxy-[1,2,4]triazolo[1,5-a]pyridin-2-yl]-cyclopropylmethyl}-amide], for which the IC50 was less than 500 nM.

Turning to `COc1ccc(C2=NNC(=O)CC2C)n2nc(C3CC3)nc12` (stereo not drawn) [Compound 158, 6-(2-Cyclopropyl-8-methoxyl-[1,2,4]triazolo[1,5-a]pyridin-5-yl)-5-methyl-4,5-dihydro-2H-pyridazin-3-one], the 50% inhibitory concentration (IC50) fell in the range of 500 to 1000 nM. For `COc1ccc(-c2cncc(C#N)c2)n2nc(C3CC3)nc12` [Compound 159, 5-(2-Cyclopropyl-8-methoxy-[1,2,4]triazolo[1,5-a]pyridin-5-yl)-nicotinonitrile], the IC50 was less than 500 nM. As for `COc1ccc(-c2ccc(C#N)c(C)c2)n2nc(C3CC3)nc12` [Compound 161, 4-(2-Cyclopropyl-8-methoxyl-[1,2,4]triazolo[1,5-a]pyridin-5-yl)-2-methyl-benzonitrile], the figure is less than 500 nM; as for `COc1ccc(-c2cc(F)cc(C#N)c2)n2nc(C3CC3)nc12` [Compound 164, 3-(2-Cyclopropyl-8-methoxy-[1,2,4]triazolo[1,5-a]pyridin-5-yl)-5-fluoro-benzonitrile], less than 500 nM. For the compound `COc1ccc(-c2ccc(C#N)c(F)c2)n2nc(C3CC3)nc12` [Compound 165, 4-(2-Cyclopropyl-8-methoxyl-[1,2,4]-triazolo[1,5-a]pyridin-5-yl)-2-fluoro-benzonitrile], the half-maximal inhibitory concentration (IC50) is less than 500 nM.

Regarding `COc1cc(-c2ccc(OC)c3nc(C4CC4)nn23)ccc1C#N` [Compound 166, 4-(2-Cyclopropyl-8-methoxy-[1,2,4]triazolo[1,5-a]pyridin-5-yl)-2-methoxy-benzonitrile], the 50% inhibitory concentration (IC50) is less than 500 nM.

For `COc1ccc(-c2cc(C#N)cc(CO)c2)n2nc(C3CC3)nc12` [Compound 168, 3-(2-Cyclopropyl-8-methoxy-[1,2,4]triazolo[1,5-a]pyridin-5-yl)-5-hydroxymethyl-benzonitrile], the IC50 is less than 500 nM. As for `COc1cc(C#N)cc(-c2ccc(OC)c3nc(C4CC4)nn23)c1` [Compound 169, 3-(2-Cyclopropyl-8-methoxy-[1,2,4]triazolo[1,5-a]pyridin-5-yl)-5-methoxy-benzonitrile], the figure is less than 500 nM; as for `COc1ccc(-c2ccc3c(c2)CNC3=O)n2nc(C3CC3)nc12` [Compound 171, 5-(2-Cyclopropyl-8-methoxy-[1,2,4]triazolo[1,5-a]pyridin-5-yl)-2,3-dihydro-isoindol-1-one], less than 500 nM; as for `COc1ccc(-c2cccc3c2CCC3=O)n2nc(C3(C(=O)NCc4ccccc4)CC3)nc12` [Compound 172, 1-[8-Methoxy-5-(1-oxo-indan-4-yl)-[1,2,4]triazolo[1,5-a]pyridin-2-yl]-cyclopropanecarboxylic acid benzylamide], less than 500 nM.

Regarding `COc1ccc(-c2cncc(C#N)c2)n2nc(C3(C(=O)NCc4ccccc4)CC3)nc12` [Compound 173, 1-[5-(5-Cyano-pyridin-3-yl)-8-methoxy-[1,2,4]triazolo[1,5-a]pyridin-2-yl]-cyclopropanecarboxylic acid benzylamide], the IC50 was less than 500 nM.

As to `COc1cc(-c2ccc(OC)c3nc(C4(C(=O)NCC5CCCCC5)CC4)nn23)ccc1C#N` [Compound 174, 1-[5-(4-Cyano-3-methoxy-phenyl)-8-methoxy-[1,2,4]triazolo[1,5-a]pyridin-2-yl]-cyclopropanecarboxylic acid cyclohexylmethyl-amide], the IC50 is less than 500 nM. As for `COc1cc(-c2ccc(OC)c3nc(C4(C(=O)NC(C)C)CC4)nn23)ccc1C#N` [Compound 175, 1-[5-(4-Cyano-3-methoxy-phenyl)-8-methoxy-[1,2,4]triazolo[1,5-a]pyridin-2-yl]-cyclopropanecarboxylic acid isopropylamide], the IC50 was less than 500 nM. Turning to `COc1ccc(-c2cccc3c2CCC3=O)n2nc(C3(C(=O)NCC4CCCCC4)CC3)nc12` [Compound 176, 1-[8-Methoxy-5-(1-oxo-indan-4-yl)-[1,2,4]triazolo[1,5-a]pyridin-2-yl]-cyclopropanecarboxylic acid cyclohexylmethyl-amide], the IC50 is less than 500 nM. In the case of `COc1cc(-c2ccc(OC)c3nc(C4(C(=O)NCCS(C)(=O)=O)CC4)nn23)ccc1C#N` [Compound 177, 1-[5-(4-Cyano-3-methoxy-phenyl)-8-methoxy-[1,2,4]triazolo[1,5-a]pyridin-2-yl]-cyclopropanecarboxylic acid (2-methanesulfonyl-ethyl)-amide], the IC50 was less than 500 nM. Consider `COc1cc(-c2ccc(OC)c3nc(C4(C(=O)NCc5ccccc5)CC4)nn23)ccc1C#N` [Compound 178, 1-[5-(4-Cyano-3-methoxy-phenyl)-8-methoxy-[1,2,4]triazolo[1,5-a]pyridin-2-yl]-cyclopropanecarboxylic acid benzylamide], for which the IC50 is less than 500 nM. For `COc1ccc(-c2ccc3c(c2)COC3=O)n2nc(C3(C(=O)NCc4ccccc4)CC3)nc12` [Compound 179, 1-[8-Methoxy-5-(1-oxo-1,3-dihydro-isobenzofuran-5-yl)-[1,2,4]triazolo[1,5-a]pyridin-2-yl]-cyclopropanecarboxylic acid benzylamide], the IC50 is less than 500 nM.

`COc1ccc(-c2cccc3c2CCC3=O)n2nc(C3(C(=O)NC(C)C)CC3)nc12` [Compound 180, 1-[8-Methoxy-5-(1-oxo-indan-4-yl)-[1,2,4]triazolo[1,5-a]pyridin-2-yl]-cyclopropanecarboxylic acid isopropylamide]: the IC50 was less than 500 nM.

As for `COc1ccc(-c2ccc3c(c2)CCC3=O)n2nc(C3(C(=O)NC(C)C)CC3)nc12` [Compound 181, 1-[8-Methoxy-5-(1-oxo-indan-5-yl)-[1,2,4]triazolo[1,5-a]pyridin-2-yl]-cyclopropanecarboxylic acid isopropylamide], the half-maximal inhibitory concentration (IC50) is less than 500 nM. For `COc1ccc(-c2ccc3c(c2)CCC3=O)n2nc(C3(C(=O)NCc4ccccc4)CC3)nc12` [Compound 182, 1-[8-Methoxy-5-(1-oxo-indan-5-yl)-[1,2,4]triazolo[1,5-a]pyridin-2-yl]-cyclopropanecarboxylic acid benzylamide], the IC50 was less than 500 nM.

Consider `COc1ccc(-c2cccc3c2CCC3=O)n2nc(C3(C(=O)NCCS(C)(=O)=O)CC3)nc12` [Compound 183, 1-[8-Methoxy-5-(1-oxo-indan-4-yl)-[1,2,4]triazolo[1,5-a]pyridin-2-yl]-cyclopropanecarboxylic acid (2-methanesulfonyl-ethyl)-amide], for which the 50% inhibitory concentration (IC50) was less than 500 nM. As for `COc1ccc(-c2ccc3c(c2)CCC3=O)n2nc(C3(C(=O)NCCS(C)(=O)=O)CC3)nc12` [Compound 184, 1-[8-Methoxy-5-(1-oxo-indan-5-yl)-[1,2,4]triazolo[1,5-a]pyridin-2-yl]-cyclopropanecarboxylic acid (2-methanesulfonyl-ethyl)-amide], the figure is less than 500 nM; as for `COc1ccc(-c2cncc(C#N)c2)n2nc(C3(C(=O)NCC4CCCCC4)CC3)nc12` [Compound 185, 1-[5-(5-Cyano-pyridin-3-yl)-8-methoxy-[1,2,4]triazolo[1,5-a]pyridin-2-yl]-cyclopropanecarboxylic acid cyclohexylmethyl-amide], less than 500 nM. On to `COc1ccc(-c2cncc(C#N)c2)n2nc(C3(C(=O)NCCS(C)(=O)=O)CC3)nc12` [Compound 186, 1-[5-(5-Cyano-pyridin-3-yl)-8-methoxy-[1,2,4]triazolo[1,5-a]pyridin-2-yl]-cyclopropanecarboxylic acid (2-methanesulfonyl-ethyl)-amide], for which the concentration for half-maximal inhibition (IC50) was less than 500 nM. Take `CCOC(=O)C1(c2nc3c(OC)ccc(-c4cccc(C#N)c4)n3n2)CC1` [Compound 188, 1-[5-(3-Cyano-phenyl)-8-methoxy-[1,2,4]triazolo[1,5-a]pyridin-2-yl]-cyclopropanecarboxylic acid ethyl ester]: the IC50 is less than 500 nM.

With `CCOC(=O)C1(c2nc3c(OC)ccc(-c4cccc(C(C)=O)c4)n3n2)CC1` [Compound 190, 1-[5-(3-Acetyl-phenyl)-8-methoxy-[1,2,4]triazolo[1,5-a]pyridin-2-yl]-cyclopropanecarboxylic acid ethyl ester], the IC50 is less than 500 nM. Turning to `COc1ccc(-c2cccc(C(C)=O)c2)n2nc(C3(C(=O)O)CC3)nc12` [Compound 193, 1-[5-(3-Acetyl-phenyl)-8-methoxyl-[1,2,4]triazolo[1,5-a]pyridin-2-yl]-cyclopropanecarboxylic acid], the concentration for half-maximal inhibition (IC50) is greater than 1000 nM. For the compound `COc1ccc(-c2cccc(C#N)c2)n2nc(C3(C(=O)NC(C)C)CC3)nc12` [Compound 194, 1-[5-(3-Cyano-phenyl)-8-methoxyl-[1,2,4]triazolo[1,5-a]pyridin-2-yl]-cyclopropanecarboxylic acid isopropylamide], the half-maximal inhibitory concentration (IC50) is less than 500 nM. Regarding `COc1ccc(-c2cccc(C#N)c2)n2nc(C3(C(=O)NCc4cccnc4)CC3)nc12` [Compound 195, 1-[5-(3-Cyano-phenyl)-8-methoxy-[1,2,4]triazolo[1,5-a]pyridin-2-yl]-cyclopropanecarboxylic acid (pyridin-3-ylmethyl)-amide], the IC50 is less than 500 nM.

As for `COc1ccc(-c2cccc(C#N)c2)n2nc(C3(C(=O)N4CCOCC4)CC3)nc12` [Compound 196, 3-{8-Methoxy-2-[1-(morpholine-4-carbonyl)-cyclopropyl]-[1,2,4]triazolo-[1,5-a]pyridin-5-yl}-benzonitrile], the IC50 was in the range of 500 to 1000 nM.

As a reminder, the IC50 is the midpoint of a concentration-inhibition curve.

(Values after patent US8952162B2, “Triazolopyridines as phosphodiesterase inhibitors for treatment of dermal diseases” (Leo Pharma A/S, priority 2008, dated 2015).)
